Data reported in patent US5532236A, “[1,2,4]triazolo[4,3-a]quinoxaline compounds” (priority 1993, dated 1996).

Assays:
[1] = test system: NMDA (N-methyl-D-aspartate) receptors; conditions: cited from earlier work
kainate receptors = conditions: cited from earlier work
AMPA receptors = conditions: cited from earlier work
AMPA type receptors = assay: 3H-AMPA binding (Test 1); conditions: rat cerebral cortical membrane homogenate; 5 nM 3H-AMPA; pH 7.1; 0° C., 30 min; read-out: TEST 1 IC50 (displacement of 50% of the specific binding of 3H-AMPA)
Description: AMPA receptor binding may be studied by using ^3 H-AMPA as radioligand.
The pharmacological properties of the compounds of the present invention can be illustrated by determining their capability for displacing radioactively labelled 2-amino-3-hydroxy-5-methyl-4-isoxazolepropionic acid (AMPA) from the AMPA type receptors.
The displacement activity of the compounds may be shown by determining the IC50 value which represents the concentration (μM) which causes a displacement of 50% of the specific binding of ^3 H-AMPA.
^3 H-AMPA binding (Test 1)
500 μl of thawed rat cerebral cortical membrane homogenate in Tris-HCl (30 mM), CaCl2 (2.5 mM) and KSCN (100 mM) pH 7.1 were incubated at 0° C. for 30 min. with 25 μl ^3 H-AMPA (5 nM final concentration) and the test compound and buffer. Nonspecific binding was determined by incubation with L-glutamic acid (600 μM final concentration). The binding reaction was terminated by adding 5 ml of ice-cold buffer followed by filtration through Whatman GF/C glass fibre filters and 2×5 ml wash with ice-cold buffer. Bound radioactivity was measured by scintillation counting. IC50 was determined by Hill analysis of at least four concentrations of test compound.

[2] = test system: quisqualic acid stimulated spreading depression in chicken retina; assay: Spreading depression (Test 2): antagonism of quisqualic acid stimulated spreading depression in chicken retina; format: cell-based; conditions: Gallus gallus, 0.25 h, quisqualate 1 μg/ml, 26° C., 15 min incubation with test compound, read-out: TEST 2 IC50 (50% maximal inhibition of quisqualic acid stimulated spreading depression)
Description: The influence of glutamic acid analogues on secondary effects of glutamate receptor interactions may be studied in vitro by using the phenomenon of spreading depression in chicken retina. Such experiments will provide information as to the efficacies (agonist/antagonist) of the test substances. This is in contrast to binding studies, which only provide information on the affinities of the compounds for the receptor.
The pharmacological properties of the compounds of the present invention can be illustrated by determining their capability for displacing radioactively labelled 2-amino-3-hydroxy-5-methyl-4-isoxazolepropionic acid (AMPA) from the AMPA type receptors. […]
The eyes were initially incubated in normal P.S.S. for 15-30 min. and then transferred to P.S.S. containing quisqualate (1 μg/ml). […] The time taken for an S.D. to start in each eye was measured.
After a further 15 min. of incubation in normal P.S.S. the eyes were transferred to normal P.S.S. containing the test compound and incubated for 15 min. […] The time taken for an S.D. to start in each eye was measured again. The eyes were then placed back in normal P.S.S. and after 15 min. the time taken for S.D. to start was measured again, in order to assess the degree of recovery from any drug effects. […]

In the case of `O=C(O)C1CN(CCCP(=O)(O)O)CCN1` (racemic) [CPP, 3-[(±)-2-carboxy-piperazin-4-yl]-propyl-1-phosphonic acid], the “antagonist activity at NMDA receptors” value [1] is listed as “most potent and selective antagonists”.

In the case of `O=C(O)[C@@H]1CCCN[C@H]1C(=O)O` (relative stereo) [trans-2,3-PDA, trans-2,3-piperidine dicarboxylic acid], the “agonist activity on NMDA receptors” value [1] is listed as “strong to moderate agonist activity”.

For `N[C@@H](CCC(=O)NCC(=O)O)C(=O)O` [3-glutamyl-glycine], the “antagonism / selectivity at kainate receptors” value (kainate receptors; O. Goldberg et al. 1981) is given as “some selectivity for kainate receptors”.

For `Cc1onc(O)c1CC(N)C(=O)O` (stereo not drawn) [AMPA, 2-amino-3-hydroxy-5-methyl-4-isoxazolepropionic acid], the “agonist activity at AMPA receptors” value (AMPA receptors) is given as “activated selectively”.

For `N[C@H](CCCC(=O)O)C(=O)O` [D-2-amino-adipic acid], the “antagonist activity at NMDA receptors” value [1] is given as “moderate antagonist activity”.

In the case of `N[C@H](CCCP(=O)(O)O)C(=O)O` [D-APV, 2-amino-5-phosphono-valeric acid], the “antagonist activity at NMDA receptors” value [1] is given as “most potent and selective antagonists”.

In the case of `N[C@H](CCC(=O)O)C(=O)O` [D-glutamic acid], the “agonist activity on NMDA receptors” value [1] is given as “strong to moderate agonist activity”.

With `O=c1[nH]c2cc(-n3ccnc3)ccc2n2c(=O)[nH]nc12` [Example 1, 7-(1H-Imidazol-1-yl)[1,2,4]triazolo[4,3-a]quinoxaline-1,4(2H,5H)-dione] the IC50 (AMPA type receptors) was 180 nM and the IC50 [2] was 3900 nM.

Work on `O=c1[nH]c2cc(-n3ccnc3)c(C(F)(F)F)cc2n2c(=O)[nH]nc12` [Example 2, 7-(1H-Imidazol-1-yl)-8-trifluoromethyl[1,2,4]triazolo[4,3-a]quinoxaline-1,4(2H,5H)-dione] yielded an IC50 (AMPA type receptors) of 1700 nM and an IC50 [2] of 4800 nM.

In the case of `CCOC(=O)CC[C@H](N)C(=O)OCC` [GDEE, Glutamic acid diethyl ester], the “sensitivity of excitatory responses to kainic acid to antagonism” value (kainate receptors) is listed as “relatively insensitive” and the “antagonist activity at AMPA receptors” value (AMPA receptors) is listed as “selective but very weak antagonist”.

In the case of `N[C@H](C(=O)O)c1cc(=O)[nH]o1` [Ibotenic acid], the “agonist activity on NMDA receptors” value [1] is listed as “strong to moderate agonist activity”.

In the case of `N[C@@H](CCC(=O)O)C(=O)O` [L-glutamic acid], the “agonist activity at AMPA receptors” value (AMPA receptors) is listed as “potent agonists”.

In the case of `N[C@@H](CCS(=O)(=O)O)C(=O)O` [L-homocysteic acid], the “agonist activity on NMDA receptors” value [1] is listed as “strong to moderate agonist activity”.

In the case of `N[C@H](CCC[C@H](N)C(=O)O)C(=O)O` [diaminopimelic acid], the “antagonist activity at NMDA receptors” value [1] is given as “moderate antagonist activity”.

For `N[C@@H](Cn1oc(=O)[nH]c1=O)C(=O)O` [quisqualic acid], the “agonist activity at AMPA receptors” value (AMPA receptors) is given as “potent agonists”.
